Laboratory results reported in US11566007B2, “Ras inhibitors” (Revolution Medicines, Inc., priority 2019, dated 2023).
Where two headings read alike, the source gives them in different places. Each block holds one compound with its values, some of them ahead of it.

What was measured:
[1] = system: NCI-H358 cells (K-Ras G12C); test: Potency assay: pERK in NCI-H358 cells; type: cell-based, human
Experimental: The purpose of this assay is to measure the ability of test compounds to inhibit K-Ras in cells. […] This procedure measures a decrease in cellular pERK in response to test compounds.
NCI-H358 cells were grown and maintained using media and procedures recommended by the ATCC. On the day prior to compound addition, cells were plated in 384-well cell culture plates (40 μl/well) and grown overnight in a 37° C., 5% CO2 incubator. Test compounds were prepared in 10, 3-fold dilutions in DMSO, with a high concentration of 10 mM. On the day of assay, 40 nL of test compound was added to each well of cell culture plate using an Echo550 liquid handler (LabCyte®). Concentrations of test compound were tested in duplicate. After compound addition, cells were incubated 4 hours at 37° C., 5% CO2. Following incubation, culture medium was removed and cells were washed once with phosphate buffered saline.
In some experiments, cellular pERK level was determined using the AlphaLISA SureFire Ultra p-ERK1/2 Assay Kit (PerkinElmer). Cells were lysed in 25 μL lysis buffer, with shaking at 600 RPM at room temperature. […] After a 2-hour incubation in the dark, 5 μL donor mix was added, plate was sealed, and incubated 2 hours at room temperature. Signal was read on an Envision plate reader (PerkinElmer) using standard AlphaLISA settings. Analysis of raw data was carried out in Excel (Microsoft) and Prism (GraphPad). Signal was plotted vs. the decadal logarithm of compound concentration, and IC50 was determined by fitting a 4-parameter sigmoidal concentration response model.
In other experiments, cellular pERK was determined by In-Cell Western. […] Fixed cells were washed 4 times for 5 minutes with TBS containing 0.1% Triton X-100 (TBST) and then blocked with 100 μL Odyssey blocking buffer (LI-COR) for 60 minutes at room temperature. […] Cells were washed 4 times for 5 minutes with TBST. Secondary antibody (IR-800CW rabbit, LI-COR, diluted 1:800) and DNA stain DRAQS (LI-COR, diluted 1:2000) were added and incubated 1-2 hours at room temperature. Cells were washed 4 times for 5 minutes with TBST. Plates were scanned on a Li-COR Odyssey CLx Imager. Analysis of raw data was carried out in Excel (Microsoft) and Prism (Graph Pad). Signal was plotted vs. the decadal logarithm of compound concentration, and IC50 was determined by fitting a 4-parameter sigmoidal concentration response model.

NCI-H358 (K-Ras G12C) = test: CellTiter-Glo cell viability assay, NCI-H358; type: cell-based, human; conditions: NCI-H358, 5-day treatment, class symbols, read-out: Additional H358 Cell Viability assay data (K-Ras G12C, IC50)
Experimental: Note—The following protocol describes a procedure for monitoring cell viability of K-Ras mutant cancer cell lines in response to a compound of the invention. Other RAS isoforms may be employed, though the number of cells to be seeded will vary based on cell line used.
Test compounds (132.5 nL) were directly dispensed into the assay plates containing cells. […] On day 5, assay plates and their contents were equilibrated to room temperature for approximately 30 minutes. […] Luminescence was measured using the PerkinElmer Enspire. Data were normalized by the following: (Sample signal/Avg. DMSO)*100. The data were fit using a four-parameter logistic fit.

KRAS G12S = KRAS G12S (Homo sapiens (Human), UniProt P01116+P62937, G12S); test: Ras-Raf (BRAF RBD) disruption / FRET / MOA assay, KRAS G12S; type: biochemical; conditions: Ras-Raf disruption/FRET/MOA assay; class symbols; read-out: KRAS G12S FRET data IC50
Sequence of KRAS G12S (P01116-2 other isoform, or with tags, fused parts or gaps G12S): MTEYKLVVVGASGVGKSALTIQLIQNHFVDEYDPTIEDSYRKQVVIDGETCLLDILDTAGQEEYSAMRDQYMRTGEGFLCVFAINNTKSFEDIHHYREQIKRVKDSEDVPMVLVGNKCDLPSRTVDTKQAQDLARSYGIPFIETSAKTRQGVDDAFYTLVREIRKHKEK
Sequence of KRAS G12S (P62937 whole entry, canonical isoform): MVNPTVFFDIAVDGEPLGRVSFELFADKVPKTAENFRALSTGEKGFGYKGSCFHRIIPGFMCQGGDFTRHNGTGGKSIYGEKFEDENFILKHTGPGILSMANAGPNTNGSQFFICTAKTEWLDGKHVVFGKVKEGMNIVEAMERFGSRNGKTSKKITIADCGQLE
Experimental: (§1) The purpose of this biochemical assay is to measure the ability of test compounds to facilitate ternary complex formation between a nucleotide-loaded Ras isoform and cyclophilin A; the resulting ternary complex disrupts binding to a BRAF^RBD construct, inhibiting Ras signaling through a RAF effector.
(§2) Compound is present in plate wells as a 10-point 3-fold dilution series starting at a final concentration of 30 μM. After incubation at 25° C. for 3 hours, a mixture of Anti-His Eu-W1024 and anti-GST allophycocyanin is then added to assay sample wells at final concentrations of 10 nM and 50 nM, respectively, and the reaction incubated for an additional 1.5 hours. […] Compounds that facilitate disruption of a Ras:RAF complex are identified as those eliciting a decrease in the TR-FRET ratio relative to DMSO control wells.
(§3) This protocol may also be executed substituting other Ras proteins or nucleotides.
(§4) The purpose of this biochemical assay was to measure the ability of test compounds to facilitate ternary complex formation between a nucleotide-loaded K-Ras isoform and Cyclophilin A; the resulting ternary complex disrupts binding to a BRAF^RBD construct, inhibiting K-Ras signaling through a RAF effector. Data is reported as IC50 values.
as §2, with “Compound was” for “Compound is”, “allophycocyanin was” for “allophycocyanin is”, “a K-Ras:RAF” for “a Ras:RAF”, “complex were” for “complex are”

KRAS G12D = KRAS G12D (Homo sapiens (Human), UniProt P01116+P62937, G12D); test: Ras-Raf (BRAF RBD) disruption / FRET / MOA assay, KRAS G12D; type: biochemical; conditions: Ras-Raf disruption/FRET/MOA assay; class symbols; read-out: KRAS G12D FRET data IC50
Sequence of KRAS G12D (P01116-2 other isoform, or with tags, fused parts or gaps G12D): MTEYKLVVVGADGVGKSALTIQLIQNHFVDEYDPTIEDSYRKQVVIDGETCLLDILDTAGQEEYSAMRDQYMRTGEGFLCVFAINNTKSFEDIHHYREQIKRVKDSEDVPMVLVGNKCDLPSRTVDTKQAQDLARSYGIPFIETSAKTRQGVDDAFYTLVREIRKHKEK
Sequence of KRAS G12D (P62937 whole entry): as the sequence (P62937 whole entry, canonical isoform) above
Experimental: as §1, §2, §3, §4
as §2, with “Compound was” for “Compound is”, “allophycocyanin was” for “allophycocyanin is”, “a K-Ras:RAF” for “a Ras:RAF”, “complex were” for “complex are”

[2] = Homo sapiens, NCI-H358, H358 KRAS G12C, read-out: pERK EC50
[3] = H358 KRAS G12C, read-out: pERK EC50

EC50 [1, 2]: < 5 µM | IC50 (NCI-H358 (K-Ras G12C); Homo sapiens, NCI-H358, 120 h): 0.01 to 0.1 µM
SMILES: C=CC(=O)N1CC[C@H](C(=O)N(C)[C@H](C(=O)N[C@H]2Cc3cc(O)cc(c3)-c3ccc4c(c3)c(c(-c3cnccc3C)n4CC)CC(C)(C)COC(=O)[C@@H]3CCCN(N3)C2=O)C(C)C)C1 [Example A77]

SMILES: C=CC(=O)N1CC[C@H](C(=O)N(C)[C@H](C(=O)N[C@H]2Cc3cc(O)cc(c3)-c3ccc4c(c3)c(c(C3=C(COC)COCC3)n4CC)CC(C)(C)COC(=O)[C@@H]3CCCN(N3)C2=O)C(C)C)C1 [Example A58]
EC50 [1, 2]: < 5 µM | IC50 (NCI-H358 (K-Ras G12C); Homo sapiens, NCI-H358, 120 h): 0.01 to 0.1 µM

EC50 [1, 2]: < 5 µM
SMILES: C=CC(=O)N1CC[C@H](C(=O)N(C)[C@H](C(=O)N[C@H]2Cc3cc(O)cc(c3)-c3ccc4c(c3)c(c(-c3ccccc3CCOC)n4C(C)(C)C#N)CC(C)(C)COC(=O)[C@@H]3CCCN(N3)C2=O)C(C)C)C1 [Example A12]

SMILES: C=CC(=O)N1CCN(C(=O)N(C)[C@H](C(=O)N[C@H]2Cc3cc(O)cc(c3)-c3ccc4c(c3)c(c(-c3ccccc3CN(C)C)n4CC)CC(C)(C)COC(=O)[C@@H]3CCCN(N3)C2=O)C(C)C)CC1 [Example A37]
EC50 [1, 2]: < 5 µM

IC50 (NCI-H358 (K-Ras G12C); Homo sapiens, NCI-H358, 120 h): > 1 µM
SMILES: CCn1c(-c2ccccc2CN(C)C)c2c3cc(ccc31)-c1cc(O)cc(c1)C[C@H](NC(=O)[C@H](C(C)C)N(C)C(=O)c1nc(NC(=O)/C=C/CN(C)C)cs1)C(=O)N1CCC[C@H](N1)C(=O)OCC(C)(C)C2 [Example A90]

IC50 (NCI-H358 (K-Ras G12C)): > 1 µM
SMILES: CC#CC(=O)N1CC[C@H](C(=O)N(C)[C@@H](C(=O)N[C@H]2Cc3cc(O)cc(c3)-c3ccc4c(c3)c(c(-c3cccnc3[C@H](C)OC)n4CC)CC(C)(C)COC(=O)[C@@H]3CCCN(N3)C2=O)C(C)C)C1 (atropisomer, axis not shown) [Example A198]

IC50 (NCI-H358 (K-Ras G12C); Homo sapiens, NCI-H358, 120 h): > 1 µM
SMILES: CCn1c(-c2ccccc2CN(C)C)c2c3cc(ccc31)-c1cc(O)cc(c1)C[C@H](NC(=O)[C@H](C(C)C)N(C)C(=O)c1ccc(NC(=O)/C=C/CN(C)C)cc1)C(=O)N1CCC[C@H](N1)C(=O)OCC(C)(C)C2 [Example A49]

EC50 [1, 2]: < 5 µM
SMILES: CCn1c(-c2ccccc2CCOC)c2c3cc(ccc31)-c1cc(O)cc(c1)C[C@H](NC(=O)[C@H](C(C)C)N(C)C(=O)[C@H]1CCN(C(=O)/C=C/CN(C)C)C1)C(=O)N1CCC[C@H](N1)C(=O)OCC(C)(C)C2 [Example A15]

EC50 [1, 3]: < 5 µM
SMILES: CC#CC(=O)N1CC[C@H](C(=O)N(C)[C@H](C(=O)N[C@H]2Cc3cc(O)cc(c3)-c3ccc4c(c3)c(c(-c3cccnc3[C@H](C)OC)n4CC)CC(C)(C)COC(=O)[C@@H]3CCCN(N3)C2=O)C(C)C)C1 (atropisomer, axis not shown; (M)) [Example A145, (2S)-2-{1-[(3S)-1-(but-2-ynoyl)pyrrolidin-3-yl]-N-methylformamido}-N-[(8S,14S,20M)-22-ethyl-4-hydroxy-21-{2-[(1S)-1-methoxyethyl]pyridin-3-yl}-18,18-dimethyl-9,15-dioxo-16-oxa-10,22,28-triazapentacyclo[18.5.2.1^2,^6.1^10,^14.0^23,^27]nonacosa-1(26),2,4,6(29),20,23(27),24-heptaen-8-yl]-3-methylbutanamide]

EC50 [1, 3]: < 5 µM
SMILES: C=CC(=O)N1CC[C@H](C(=O)N(C)[C@H](C(=O)N[C@H]2Cc3cc(O)cc(c3)-c3ccc4c(c3)c(c(-c3cccnc3)n4C(C)(C)C#N)CC(C)(C)COC(=O)[C@@H]3CCCN(N3)C2=O)C(C)C)C1 [Example A74]

EC50 [1, 2]: < 5 µM
SMILES: C=CC(=O)N1CC[C@H](C(=O)N(C)[C@H](C(=O)N[C@H]2Cc3cc(O)cc(c3)-c3ccc4c(c3)c(c(-c3cncc(CCN(C)C)c3)n4CC)CC(C)(C)COC(=O)[C@@H]3CCCN(N3)C2=O)C(C)C)C1 [Example A81]

SMILES: C=CC(=O)N1CC[C@H](C(=O)N(C)[C@H](C(=O)N[C@H]2Cc3cc(O)cc(c3)-c3ccc4c(c3)c(c(-c3cnccc3[C@H](C)OC)n4CC)CC(C)(C)COC(=O)[C@@H]3CCCN(N3)C2=O)C(C)C)C1 [Example A76]
EC50 [1, 3]: < 5 µM

EC50 [1, 2]: < 5 µM
SMILES: C=CC(=O)N1CC[C@H](C(=O)N(C)[C@H](C(=O)N[C@H]2Cc3cc(OC(=O)CCC(=O)O)cc(c3)-c3ccc4c(c3)c(c(-c3ccccc3CCOC)n4CC)CC(C)(C)COC(=O)[C@@H]3CCCN(N3)C2=O)C(C)C)C1 [Example A32]

IC50 (NCI-H358 (K-Ras G12C)): > 1 µM | IC50 (KRAS G12S): > 10 µM | IC50 (KRAS G12D): > 10 µM
SMILES: C=CC(=O)N1CC[C@H](C(=O)N(C)[C@H](C(=O)NC2C[C@@H]3CN(CCO3)c3ccc4c(c3)c(c(-c3cccnc3COC)n4CC)CC(C)(C)COC(=O)[C@@H]3CCCN(N3)C2=O)C(C)C)C1 (some centres unmarked) [Example A318]

SMILES: C=CC(=O)N1CC[C@H](C(=O)N(C)[C@H](C(=O)N[C@H]2Cc3cc(OC(=O)N(C)CC(=O)O)cc(c3)-c3ccc4c(c3)c(c(-c3ccccc3CCOC)n4CC)CC(C)(C)COC(=O)[C@@H]3CCCN(N3)C2=O)C(C)C)C1 [Example A78]
EC50 ([1]; Homo sapiens, NCI-H358, read-out: pERK EC50): < 5 µM

IC50 (NCI-H358 (K-Ras G12C); Homo sapiens, NCI-H358, 120 h): > 1 µM
SMILES: CCn1c(-c2cccnc2COC)c2c3cc(ccc31)-c1cc(O)cc(c1)C[C@H](NC(=O)[C@H](C(C)C)N(C)C(=O)[C@H]1CCN(C(=O)/C=C/CN3CCN(C)CC3)C1)C(=O)N1CCC[C@H](N1)C(=O)OCC(C)(C)C2 [Example A72]

EC50 [1, 2]: < 5 µM
SMILES: C=CC(=O)N1CC[C@H](C(=O)N(C)[C@H](C(=O)N[C@H]2Cc3cc(O)cc(c3)-c3ccc4c(c3)c(c(-c3ccccc3CO)n4CC)CC(C)(C)COC(=O)[C@@H]3CCCN(N3)C2=O)C(C)C)C1 [Example A4]

EC50 [1, 3]: < 5 µM
SMILES: C=CC(=O)N1CC[C@H](C(=O)N(C)[C@H](C(=O)N[C@H]2Cc3cc(O)cc(c3)-c3ccc4c(c3)c(c(-c3ccccc3CCOC)n4C(C)(C)C#N)CC(C)(C)COC(=O)[C@@H]3CCCN(N3)C2=O)C(C)C)C1 [Example A34]

SMILES: CCn1c(-c2cnccc2COC)c2c3cc(ccc31)-c1cc(O)cc(c1)C[C@H](NC(=O)[C@H](C(C)C)N(C)C(=O)[C@H]1CCN(C(=O)C#CCN(C)C)C1)C(=O)N1CCC[C@H](N1)C(=O)OCC(C)(C)C2 [Example A88]
EC50 [1, 2]: < 5 µM

IC50 (KRAS G12S): 0.1 to 1 µM | IC50 (KRAS G12D): 1 to 10 µM
SMILES: C=CC(=O)N1CC[C@H](C(=O)N(C)[C@H](C(=O)N[C@H]2Cc3cc(O)cc(c3)-c3ccc4c(c3)c(c(-c3ccccc3[C@H](C)OC)n4CC)CC(C)(C)COC(=O)[C@@H]3CCCN(N3)C2=O)C(C)C)C1 [Example A022]

EC50 [1, 2]: < 5 µM
SMILES: C=CC(=O)N1CC[C@H](C(=O)N(C)[C@H](C(=O)N[C@H]2Cc3cc(O)cc(c3)-c3ccc4c(c3)c(c(-c3ccncc3CCOC)n4CC)CC(C)(C)COC(=O)[C@@H]3CCCN(N3)C2=O)C(C)C)C1 [Example A48]
